Tests used:
[1] = molecular target: Vascular endothelial growth factor receptor 2 (Homo sapiens) (UniProt P35968); assay: Inhibition of human KDR cytoplasmic domain expressed in baculovirus assessed as substrate phosphorylation using fluorescence-labelled peptides as substrate at 0.2 uM after 90 mins by microfluidic peptide phosphorylation assay
[2] = molecular target: T1, Serine/threonine-protein kinase D1 (Homo sapiens) (UniProt Q15139); assay: Inhibition of human full length PKD1 expressed in baculovirus assessed as substrate phosphorylation using fluorescence-labelled peptides as substrate at 9 uM after 90 mins by microfluidic peptide phosphorylation assay
T1 sequence (whole entry): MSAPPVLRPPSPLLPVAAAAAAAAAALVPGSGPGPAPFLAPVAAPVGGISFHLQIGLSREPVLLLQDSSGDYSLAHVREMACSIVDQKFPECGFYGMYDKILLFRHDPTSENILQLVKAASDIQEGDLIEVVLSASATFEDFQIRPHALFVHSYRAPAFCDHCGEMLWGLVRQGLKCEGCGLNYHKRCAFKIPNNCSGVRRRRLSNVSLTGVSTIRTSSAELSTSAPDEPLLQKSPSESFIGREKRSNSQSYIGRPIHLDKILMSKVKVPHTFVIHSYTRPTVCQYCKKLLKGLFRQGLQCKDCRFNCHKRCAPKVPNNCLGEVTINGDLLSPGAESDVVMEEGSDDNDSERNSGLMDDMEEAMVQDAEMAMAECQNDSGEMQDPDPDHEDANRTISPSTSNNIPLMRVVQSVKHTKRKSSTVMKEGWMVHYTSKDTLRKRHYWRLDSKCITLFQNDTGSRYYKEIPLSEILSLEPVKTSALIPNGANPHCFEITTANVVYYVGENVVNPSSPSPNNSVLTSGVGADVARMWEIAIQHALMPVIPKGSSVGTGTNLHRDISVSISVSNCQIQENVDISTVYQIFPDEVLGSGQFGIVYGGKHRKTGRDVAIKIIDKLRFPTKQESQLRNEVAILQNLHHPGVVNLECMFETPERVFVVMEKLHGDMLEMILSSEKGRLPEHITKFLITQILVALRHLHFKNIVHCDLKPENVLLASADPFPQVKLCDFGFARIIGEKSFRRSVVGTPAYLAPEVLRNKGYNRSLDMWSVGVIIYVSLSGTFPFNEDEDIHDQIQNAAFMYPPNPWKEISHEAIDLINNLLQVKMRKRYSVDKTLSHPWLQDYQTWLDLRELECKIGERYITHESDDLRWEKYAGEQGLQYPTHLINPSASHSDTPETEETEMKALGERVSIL

[3] = molecular target: MAP kinase p38 (Homo sapiens) (UniProt O15264+Q15759+Q16539+P53778); assay: Inhibition of human full length p38 beta2 expressed in Escherichia coli cell assessed as substrate phosphorylation using fluorescence-labelled peptides as substrate at 2 uM after 90 mins by microfluidic peptide phosphorylation assay
[4] = molecular target: Mitogen-activated protein kinase kinase kinase kinase 4 (Homo sapiens) (UniProt O95819); settings: 0.1 uM
Description: Inhibition of human HGK catalytic domain expressed in baculovirus assessed as substrate phosphorylation using fluorescence-labelled peptides as substrate at 0.1 uM after 90 mins by microfluidic peptide phosphorylation assay

[5] = molecular target: T2, Serine/threonine-protein kinase Sgk3 (Homo sapiens) (UniProt Q96BR1); assay: Inhibition of human full length SGK3 expressed in baculovirus assessed as substrate phosphorylation using fluorescence-labelled peptides as substrate at 95 uM after 90 mins by microfluidic peptide phosphorylation assay
T2 sequence (whole entry): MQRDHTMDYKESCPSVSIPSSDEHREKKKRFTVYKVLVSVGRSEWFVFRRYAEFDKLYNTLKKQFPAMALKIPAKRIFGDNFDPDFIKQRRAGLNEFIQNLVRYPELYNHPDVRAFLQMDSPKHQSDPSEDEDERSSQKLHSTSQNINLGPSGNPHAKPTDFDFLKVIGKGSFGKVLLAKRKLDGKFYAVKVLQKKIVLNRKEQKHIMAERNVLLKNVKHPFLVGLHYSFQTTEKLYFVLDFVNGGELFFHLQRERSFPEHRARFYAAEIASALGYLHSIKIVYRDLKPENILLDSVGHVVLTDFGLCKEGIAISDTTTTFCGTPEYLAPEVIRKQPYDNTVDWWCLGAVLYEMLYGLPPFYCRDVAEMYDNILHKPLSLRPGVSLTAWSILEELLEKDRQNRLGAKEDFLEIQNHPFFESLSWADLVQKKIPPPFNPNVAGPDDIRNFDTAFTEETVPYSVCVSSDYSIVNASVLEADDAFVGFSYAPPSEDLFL

[6] = molecular target: Casein kinase I isoform alpha (Homo sapiens) (UniProt P48729); assay: Inhibition of human full length CSNK1A1 expressed in baculovirus assessed as substrate phosphorylation using fluorescence-labelled peptides as substrate at […] after 90 mins by microfluidic peptide phosphorylation assay
[7] = test system: Tyrosine-protein kinase ABL1 (Homo sapiens), P00519 [H396P]; assay: Inhibition of human truncated ABL H396P mutant expressed in baculovirus assessed as substrate phosphorylation using fluorescence-labelled peptides as substrate at […] after 90 mins by microfluidic peptide phosphorylation assay
[8] = molecular target: Fibroblast growth factor receptor 4 (Homo sapiens) (UniProt P22455); assay: Inhibition of human FGFR4 catalytic domain expressed in baculovirus assessed as substrate phosphorylation using fluorescence-labelled peptides as substrate at 0.06 uM after 90 mins by microfluidic peptide phosphorylation assay
[9] = molecular target: Tyrosine-protein kinase HCK (Homo sapiens) (UniProt P08631); assay: Inhibition of human HCK catalytic domain expressed in baculovirus assessed as substrate phosphorylation using fluorescence-labelled peptides as substrate at 0.06 uM after 90 mins by microfluidic peptide phosphorylation assay
[10] = molecular target: Protein kinase C alpha type (Homo sapiens) (UniProt P17252); assay: Inhibition of human truncated PKC alpha expressed in baculovirus assessed as substrate phosphorylation using fluorescence-labelled peptides as substrate at 8 uM after 90 mins by microfluidic peptide phosphorylation assay
[11] = molecular target: Rho-associated protein kinase 2 (Homo sapiens) (UniProt O75116); assay: Inhibition of human ROCK2 catalytic domain expressed in baculovirus assessed as substrate phosphorylation using fluorescence-labelled peptides as substrate at 1000 uM after 90 mins by microfluidic peptide phosphorylation assay

Chain of Tyrosine-protein kinase HCK (Homo sapiens) (P08631 2-526 limits assumed): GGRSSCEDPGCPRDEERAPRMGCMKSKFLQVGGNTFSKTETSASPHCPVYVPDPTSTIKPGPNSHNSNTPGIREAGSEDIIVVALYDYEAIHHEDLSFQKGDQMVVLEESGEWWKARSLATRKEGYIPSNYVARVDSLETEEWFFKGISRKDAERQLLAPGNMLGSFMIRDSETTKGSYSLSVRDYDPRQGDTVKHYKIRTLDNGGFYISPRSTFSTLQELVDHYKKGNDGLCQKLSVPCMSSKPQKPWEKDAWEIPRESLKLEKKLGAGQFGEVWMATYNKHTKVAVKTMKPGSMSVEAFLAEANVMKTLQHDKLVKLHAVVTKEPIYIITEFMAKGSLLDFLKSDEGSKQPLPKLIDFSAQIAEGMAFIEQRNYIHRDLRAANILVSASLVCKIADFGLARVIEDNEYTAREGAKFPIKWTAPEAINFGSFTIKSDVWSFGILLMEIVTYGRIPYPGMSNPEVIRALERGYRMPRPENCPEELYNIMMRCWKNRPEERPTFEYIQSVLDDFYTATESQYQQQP
Chain of Vascular endothelial growth factor receptor 2 (Homo sapiens) (P35968 whole entry, the tested form may be a part): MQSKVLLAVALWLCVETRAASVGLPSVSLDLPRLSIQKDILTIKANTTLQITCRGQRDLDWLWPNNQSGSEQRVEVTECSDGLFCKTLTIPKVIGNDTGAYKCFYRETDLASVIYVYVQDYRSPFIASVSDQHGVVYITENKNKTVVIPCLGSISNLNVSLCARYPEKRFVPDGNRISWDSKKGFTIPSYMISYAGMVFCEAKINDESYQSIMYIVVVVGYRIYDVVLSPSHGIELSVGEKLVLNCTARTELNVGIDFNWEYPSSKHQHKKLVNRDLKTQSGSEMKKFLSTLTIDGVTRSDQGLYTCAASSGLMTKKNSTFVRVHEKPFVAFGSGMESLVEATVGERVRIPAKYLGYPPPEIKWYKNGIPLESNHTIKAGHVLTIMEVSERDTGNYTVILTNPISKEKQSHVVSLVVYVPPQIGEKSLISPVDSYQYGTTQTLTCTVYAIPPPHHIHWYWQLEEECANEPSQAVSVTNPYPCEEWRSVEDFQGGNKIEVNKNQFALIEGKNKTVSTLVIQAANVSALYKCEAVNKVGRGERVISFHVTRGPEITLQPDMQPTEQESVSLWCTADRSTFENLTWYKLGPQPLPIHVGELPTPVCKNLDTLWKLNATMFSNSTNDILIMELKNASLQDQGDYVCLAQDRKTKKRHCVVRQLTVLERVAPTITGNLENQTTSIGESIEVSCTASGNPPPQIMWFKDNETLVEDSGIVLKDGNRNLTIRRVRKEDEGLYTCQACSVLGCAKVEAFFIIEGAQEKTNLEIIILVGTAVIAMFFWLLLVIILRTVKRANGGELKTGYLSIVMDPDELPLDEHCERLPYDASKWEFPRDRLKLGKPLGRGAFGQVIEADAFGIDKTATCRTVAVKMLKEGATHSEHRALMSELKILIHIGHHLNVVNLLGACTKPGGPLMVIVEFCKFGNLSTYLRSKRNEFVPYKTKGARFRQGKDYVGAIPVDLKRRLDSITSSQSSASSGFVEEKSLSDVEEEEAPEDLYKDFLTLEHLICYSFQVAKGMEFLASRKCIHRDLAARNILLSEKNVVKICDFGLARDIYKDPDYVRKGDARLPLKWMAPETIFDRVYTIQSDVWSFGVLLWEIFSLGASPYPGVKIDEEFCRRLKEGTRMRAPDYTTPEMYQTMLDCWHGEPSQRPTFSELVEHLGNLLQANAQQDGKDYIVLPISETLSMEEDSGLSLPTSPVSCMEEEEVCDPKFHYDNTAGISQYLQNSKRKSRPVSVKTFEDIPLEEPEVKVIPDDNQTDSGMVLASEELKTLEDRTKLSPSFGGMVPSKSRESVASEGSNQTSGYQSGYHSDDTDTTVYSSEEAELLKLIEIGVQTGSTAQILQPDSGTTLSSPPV
Chain of MAP kinase p38 (Homo sapiens) (O15264 whole entry, looked up): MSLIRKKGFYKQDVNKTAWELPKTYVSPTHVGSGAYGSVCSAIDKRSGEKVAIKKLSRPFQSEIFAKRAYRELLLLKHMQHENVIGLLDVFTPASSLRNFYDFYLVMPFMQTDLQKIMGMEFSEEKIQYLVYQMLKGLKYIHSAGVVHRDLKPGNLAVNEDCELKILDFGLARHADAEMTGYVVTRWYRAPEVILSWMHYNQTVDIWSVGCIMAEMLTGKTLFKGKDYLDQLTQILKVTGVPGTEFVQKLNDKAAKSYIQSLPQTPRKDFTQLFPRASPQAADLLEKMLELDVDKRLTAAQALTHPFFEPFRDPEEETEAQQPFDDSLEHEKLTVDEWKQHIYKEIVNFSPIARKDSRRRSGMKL
Chain of MAP kinase p38 (Homo sapiens) (P53778 whole entry, looked up): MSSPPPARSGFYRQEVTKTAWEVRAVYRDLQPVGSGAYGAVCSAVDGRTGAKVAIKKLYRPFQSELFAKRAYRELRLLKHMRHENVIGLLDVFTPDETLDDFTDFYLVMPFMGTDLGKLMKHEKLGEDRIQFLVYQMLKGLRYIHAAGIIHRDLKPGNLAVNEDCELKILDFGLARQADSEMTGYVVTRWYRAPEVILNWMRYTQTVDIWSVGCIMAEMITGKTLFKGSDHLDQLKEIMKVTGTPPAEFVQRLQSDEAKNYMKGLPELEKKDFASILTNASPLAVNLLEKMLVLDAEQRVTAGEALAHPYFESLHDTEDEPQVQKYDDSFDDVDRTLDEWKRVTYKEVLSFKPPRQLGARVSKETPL
Chain of MAP kinase p38 (Homo sapiens) (Q15759 whole entry, looked up): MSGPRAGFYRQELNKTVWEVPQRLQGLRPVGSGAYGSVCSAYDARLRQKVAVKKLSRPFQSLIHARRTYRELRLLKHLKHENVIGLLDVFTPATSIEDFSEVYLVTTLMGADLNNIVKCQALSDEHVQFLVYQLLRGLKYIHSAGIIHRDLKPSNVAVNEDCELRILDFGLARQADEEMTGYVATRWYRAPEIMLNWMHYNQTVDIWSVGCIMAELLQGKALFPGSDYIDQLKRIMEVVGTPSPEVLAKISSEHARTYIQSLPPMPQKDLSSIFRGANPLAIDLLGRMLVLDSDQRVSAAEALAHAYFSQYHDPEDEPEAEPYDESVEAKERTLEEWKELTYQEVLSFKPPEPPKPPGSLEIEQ
Chain of MAP kinase p38 (Homo sapiens) (Q16539 whole entry, looked up): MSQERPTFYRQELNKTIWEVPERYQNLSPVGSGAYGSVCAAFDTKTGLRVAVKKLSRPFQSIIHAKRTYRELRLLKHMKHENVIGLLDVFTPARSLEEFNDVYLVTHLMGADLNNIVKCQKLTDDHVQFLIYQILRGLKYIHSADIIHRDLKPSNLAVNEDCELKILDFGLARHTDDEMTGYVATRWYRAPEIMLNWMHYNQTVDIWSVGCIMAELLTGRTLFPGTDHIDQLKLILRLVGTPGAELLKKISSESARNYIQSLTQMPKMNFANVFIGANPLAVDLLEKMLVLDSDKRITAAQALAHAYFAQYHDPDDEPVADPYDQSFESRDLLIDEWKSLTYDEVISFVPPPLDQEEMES
Chain of Mitogen-activated protein kinase kinase kinase kinase 4 (Homo sapiens) (O95819 2-1239 limits assumed): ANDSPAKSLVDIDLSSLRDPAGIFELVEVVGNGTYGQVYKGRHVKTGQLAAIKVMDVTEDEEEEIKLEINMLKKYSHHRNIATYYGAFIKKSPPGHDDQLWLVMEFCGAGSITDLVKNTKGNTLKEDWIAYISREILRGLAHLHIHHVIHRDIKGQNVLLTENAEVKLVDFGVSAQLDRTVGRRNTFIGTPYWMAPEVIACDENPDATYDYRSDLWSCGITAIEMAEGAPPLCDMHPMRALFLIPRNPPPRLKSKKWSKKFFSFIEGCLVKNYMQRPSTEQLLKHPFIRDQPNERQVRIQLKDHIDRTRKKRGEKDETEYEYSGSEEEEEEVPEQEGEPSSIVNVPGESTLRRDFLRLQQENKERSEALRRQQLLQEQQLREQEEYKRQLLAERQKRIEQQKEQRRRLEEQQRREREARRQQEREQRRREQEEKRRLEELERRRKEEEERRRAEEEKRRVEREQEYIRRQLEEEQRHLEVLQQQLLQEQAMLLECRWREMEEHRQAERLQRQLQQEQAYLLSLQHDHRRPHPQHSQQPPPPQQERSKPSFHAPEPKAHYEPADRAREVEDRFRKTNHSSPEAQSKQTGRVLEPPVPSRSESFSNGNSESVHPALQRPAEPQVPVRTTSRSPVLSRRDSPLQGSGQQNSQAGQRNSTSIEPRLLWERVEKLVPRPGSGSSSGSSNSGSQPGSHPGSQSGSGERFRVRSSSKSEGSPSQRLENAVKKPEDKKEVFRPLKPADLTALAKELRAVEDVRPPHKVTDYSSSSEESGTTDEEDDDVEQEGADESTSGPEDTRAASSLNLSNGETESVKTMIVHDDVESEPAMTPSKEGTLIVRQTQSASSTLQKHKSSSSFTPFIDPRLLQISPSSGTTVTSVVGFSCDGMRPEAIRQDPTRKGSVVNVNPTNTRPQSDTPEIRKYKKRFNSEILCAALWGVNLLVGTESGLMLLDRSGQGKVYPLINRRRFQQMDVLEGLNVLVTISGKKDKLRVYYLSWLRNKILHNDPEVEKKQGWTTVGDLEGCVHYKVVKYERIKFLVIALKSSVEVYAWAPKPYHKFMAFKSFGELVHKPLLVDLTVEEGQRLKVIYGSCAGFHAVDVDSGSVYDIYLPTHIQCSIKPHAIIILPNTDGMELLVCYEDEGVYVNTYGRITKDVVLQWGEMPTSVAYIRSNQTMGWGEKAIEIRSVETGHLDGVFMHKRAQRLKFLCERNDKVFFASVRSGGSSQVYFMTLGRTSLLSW
Chain of Casein kinase I isoform alpha (Homo sapiens) (P48729 2-337 limits assumed): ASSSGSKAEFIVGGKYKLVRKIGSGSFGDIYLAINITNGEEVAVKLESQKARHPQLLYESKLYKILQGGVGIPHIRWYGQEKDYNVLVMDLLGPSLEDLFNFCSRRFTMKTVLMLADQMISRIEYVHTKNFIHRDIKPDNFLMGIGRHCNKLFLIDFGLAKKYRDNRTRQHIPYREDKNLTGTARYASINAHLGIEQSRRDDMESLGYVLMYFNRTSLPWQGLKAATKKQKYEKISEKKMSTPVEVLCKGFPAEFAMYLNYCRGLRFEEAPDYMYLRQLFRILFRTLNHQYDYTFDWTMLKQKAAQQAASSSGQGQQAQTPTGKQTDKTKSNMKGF

For Clc1ccc(C2(c3ccc(-c4ncnc5[nH]cnc45)cc3)CCNCC2)cc1, the inhibition [1] was 9%.
NCC1CN(c2ncnc3[nH]c4cnccc4c23)CCO1 (stereo unspecified) showed an inhibition [2] of 76%.
NC1CCN(c2ncnc3[nH]ccc23)CC1 showed an inhibition [3] of 5.5%.
Work on C[C@H](CN(C)C)Oc1nc(Nc2cc3cccc(Cl)c3cn2)cnc1C#N yielded an inhibition [4] of 0%.
NCCc1ccc(-c2ncnc3[nH]cnc23)cc1 showed an inhibition [5] of 41.5%.
With COC(=O)c1cnc(Nc2cnc(C#N)cn2)cc1NCC1CCNCC1 the inhibition [6] was 2% and the inhibition [7] was 1%.
NC1(Cc2ccc(Cl)cc2)CCN(c2ncnc3[nH]ccc23)CC1 showed an inhibition [8] of 2% and an inhibition [9] of 7%.
NCC1CCN(c2ncnc3[nH]ccc23)CC1 showed an inhibition [10] of 56.5%.
c1cnc2[nH]ccc2c1 gave an inhibition [11] of 99.5%.

Source: ChEMBL document CHEMBL3132769, “Fragment growing to retain or alter the selectivity of anchored kinase hinge-binding fragments” (Medchemcomm, 2014)
